Reference: US12606528B2, “Methods and materials for inhibiting NF-kB activity” (University of Pittsburgh - Of the Commonwealth System of …, priority 2019, dated 2026)
Where two headings read alike, the source gives them in different places.

Key:
NF-κB = NF-κB assay: THP1-NF-κB-LUC cells, LPS-stimulated secreted luciferase; format: cell-based; conditions: THP1-NF-κB-LUC cells; compounds 2 hours before LPS (10 ng/mL) for 18 hours; secreted luciferase; read-out: IC50 (NF-κB assay)
How it was run: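 THP1-NF-κB-LUC cells (25k/well) were pretreated with compounds for 2 h, then stimulated with LPS (10 ng/mL) for 18 h. Secreted luciferase was measured and normalized to vehicle, and IC50 was fitted from the concentration series.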

TNF release = test: TNF assay: TNF release from LPS-stimulated human PBMCs (TNF ELISA); format: cell-based; conditions: human PBMCs, compounds 2 hours before LPS (10 ng/ml) for 18 hours, supernatant TNF ELISA, read-out: IC50 (TNF assay)
How it was run: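 TNF ELISA on supernatants read-out; cells were 10k human PBMCs/well given LPS at 10 ng/mL for 18 h after a 2 h compound pre-incubation across a concentration series, with IC50 derived for suppression of TNF secretion.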

| SMILES | IC50 (NF-κB) [nM] | IC50 (TNF release; PBMC) [nM] | IC50 (TNF release) [nM] |
| --- | --- | --- | --- |
| CCC1Oc2c(cc(Cl)cc2S(=O)(=O)Nc2ccc(C)c(Cl)c2)NC1=O (stereo not shown) [BC19746] | < 100 | > 10000 | – |
| CCC1Oc2c(cc(Cl)cc2S(=O)(=O)Nc2ccc(F)cc2F)NC1=O (stereo not shown) [BC19748] | < 100 | > 10000 | – |
| CCc1cccc(NS(=O)(=O)c2cc3c(cc2Cl)NC(=O)C(CC)O3)c1 (stereo not shown) [BC19749] | 100 to 1000 | > 10000 | – |
| CCC1Oc2c(cc(Cl)cc2S(=O)(=O)Nc2cccc(Cl)c2)NC1=O (stereo not shown) [BC19752] | < 100 | > 10000 | – |
| CCC1Oc2cc(S(=O)(=O)Nc3ccc(C)cc3)c(Cl)cc2NC1=O (stereo not shown) [BC19753] | < 100 | > 10000 | – |
| CCC1Oc2c(cc(Cl)cc2S(=O)(=O)Nc2ccc(C)cc2)NC1=O (stereo not shown) [BC19754] | < 100 | 1000 to 10000 | – |
| CCc1ccc(NS(=O)(=O)c2cc(Br)cc3c2OC(CC(C)C)C(=O)N3)cc1 (stereo not shown) [BC19763] | 100 to 1000 | 1000 to 10000 | – |
| CCc1ccc(NS(=O)(=O)c2cc3c(cc2Br)NC(=O)C(CC(C)C)O3)cc1 (stereo not shown) [BC19764] | 1000 to 10000 | > 10000 | – |
| Cc1ccc(NS(=O)(=O)c2cc(Br)cc3c2OC(CC(C)C)C(=O)N3)cc1Cl (stereo not shown) [BC19767] | < 100 | > 10000 | – |
| CC(C)CC1Oc2c(cc(Br)cc2S(=O)(=O)Nc2ccc(F)cc2F)NC1=O (stereo not shown) [BC19769] | < 100 | > 10000 | – |
| CC(C)CC1Oc2cc(S(=O)(=O)Nc3ccc(F)cc3F)c(Br)cc2NC1=O (stereo not shown) [BC19770] | 100 to 1000 | > 10000 | – |
| CCc1cccc(NS(=O)(=O)c2cc(Br)cc3c2OC(CC(C)C)C(=O)N3)c1 (stereo not shown) [BC19771] | < 100 | > 10000 | – |
| CCc1cccc(NS(=O)(=O)c2cc3c(cc2Br)NC(=O)C(CC(C)C)O3)c1 (stereo not shown) [BC19772] | 100 to 1000 | > 10000 | – |
| CC(C)CC1Oc2c(cc(Br)cc2S(=O)(=O)Nc2cccc(Cl)c2)NC1=O (stereo not shown) [BC19775] | < 100 | > 10000 | – |
| CC(C)CC1Oc2cc(S(=O)(=O)Nc3cccc(Cl)c3)c(Br)cc2NC1=O (stereo not shown) [BC19776] | 100 to 1000 | > 10000 | – |
| CC(C)CC1Oc2c(cc(Br)cc2S(=O)(=O)Nc2ccc(F)cc2Cl)NC1=O (stereo not shown) [BC19777] | < 100 | > 10000 | – |
| CC1Oc2c(cc(Br)cc2S(=O)(=O)Nc2ccc(OC(F)(F)F)cc2)N(C)C1=O (stereo not shown) [BC19783] | < 100 | > 10000 | – |
| CC1Oc2cc(S(=O)(=O)Nc3ccc(F)c(F)c3)c(Br)cc2N(C)C1=O (stereo not shown) [BC19786] | 1000 to 10000 | > 10000 | – |
| CC1Oc2cc(S(=O)(=O)Nc3ccc(F)c(F)c3)c(Br)cc2N(C)C1=O (stereo not shown) [BC19788] | < 100 | – | > 10000 |
| CC1Oc2c(cc(Br)cc2S(=O)(=O)Nc2ccccc2)N(C)C1=O (stereo not shown) [BC19789] | < 100 | 1000 to 10000 | – |
| CC1Oc2cc(S(=O)(=O)Nc3ccc(Cl)cc3)c(Br)cc2N(C)C1=O (stereo not shown) [BC19792] | 1000 to 10000 | > 10000 | – |
| CC1Oc2c(cc(Br)cc2S(=O)(=O)Nc2ccc(C(C)C)cc2)N(C)C1=O (stereo not shown) [BC19793] | < 100 | > 10000 | – |
| COc1ccc(NS(=O)(=O)c2cc3c(cc2Br)N(C)C(=O)C(C)O3)cc1 (stereo not shown) [BC19795] | > 10000 | 1000 to 10000 | – |
| CC1Oc2cc(S(=O)(=O)Nc3ccc(F)cc3F)c(Br)cc2N(C)C1=O (stereo not shown) [BC19799] | 100 to 1000 | 1000 to 10000 | – |

The next lines start with the values.

| IC50 (NF-κB) [nM] | IC50 (TNF release; PBMC) [nM] | IC50 (TNF release) [nM] | SMILES |
| --- | --- | --- | --- |
| < 100 | > 10000 | – | CCc1cccc(NS(=O)(=O)c2cc(Cl)cc3c2OC(CC)C(=O)N3)c1 (stereo not shown) [BC19750] |
| 100 to 1000 | > 10000 | – | CCC1Oc2cc(S(=O)(=O)Nc3cccc(Cl)c3)c(Cl)cc2NC1=O (stereo not shown) [BC19751] |
| 1000 to 10000 | > 10000 | – | CCC1Oc2cc(S(=O)(=O)Nc3ccc(F)cc3Cl)c(Cl)cc2NC1=O (stereo not shown) [BC19755] |
| < 100 | > 10000 | – | CCC1Oc2c(cc(Cl)cc2S(=O)(=O)Nc2ccc(F)cc2Cl)NC1=O (stereo not shown) [BC19756] |
| < 100 | > 10000 | – | CC(C)CC1Oc2c(cc(Br)cc2S(=O)(=O)Nc2ccc(OC(F)(F)F)cc2)NC1=O (stereo not shown) [BC19757] |
| 100 to 1000 | > 10000 | – | CC(C)CC1Oc2cc(S(=O)(=O)Nc3ccc(OC(F)(F)F)cc3)c(Br)cc2NC1=O (stereo not shown) [BC19758] |
| < 100 | > 10000 | – | CC(C)CC1Oc2c(cc(Br)cc2S(=O)(=O)Nc2ccc(F)c(F)c2)NC1=O (stereo not shown) [BC19759] |
| < 100 | > 10000 | – | CC(C)CC1Oc2cc(S(=O)(=O)Nc3ccc(F)c(F)c3)c(Br)cc2NC1=O (stereo not shown) [BC19760] |
| 100 to 1000 | > 10000 | – | CC(C)CC1Oc2c(cc(Br)cc2S(=O)(=O)Nc2ccccc2)NC1=O (stereo not shown) [BC19761] |
| 100 to 1000 | > 10000 | – | CC(C)CC1Oc2cc(S(=O)(=O)Nc3ccccc3)c(Br)cc2NC1=O (stereo not shown) [BC19762] |
| < 100 | > 10000 | – | CC(C)CC1Oc2c(cc(Br)cc2S(=O)(=O)Nc2ccc(C(C)C)cc2)NC1=O (stereo not shown) [BC19765] |
| 1000 to 10000 | 1000 to 10000 | – | CC(C)CC1Oc2cc(S(=O)(=O)Nc3ccc(C(C)C)cc3)c(Br)cc2NC1=O (stereo not shown) [BC19766] |
| 1000 to 10000 | > 10000 | – | Cc1ccc(NS(=O)(=O)c2cc3c(cc2Br)NC(=O)C(CC(C)C)O3)cc1Cl (stereo not shown) [BC19768] |
| < 100 | > 10000 | – | CC(C)CC1Oc2c(cc(Br)cc2S(=O)(=O)Nc2cccc(F)c2)NC1=O (stereo not shown) [BC19773] |
| 100 to 1000 | > 10000 | – | CC(C)CC1Oc2cc(S(=O)(=O)Nc3cccc(F)c3)c(Br)cc2NC1=O (stereo not shown) [BC19774] |
| > 10000 | > 10000 | – | CC(C)CC1Oc2cc(S(=O)(=O)Nc3ccc(F)cc3Cl)c(Br)cc2NC1=O (stereo not shown) [BC19778] |
| 100 to 1000 | 1000 to 10000 | – | COc1ccc(NS(=O)(=O)c2cc(Br)cc3c2OC(CC(C)C)C(=O)N3)cc1Cl (stereo not shown) [BC19779] |
| 1000 to 10000 | > 10000 | – | COc1ccc(NS(=O)(=O)c2cc3c(cc2Br)NC(=O)C(CC(C)C)O3)cc1Cl (stereo not shown) [BC19780] |
| < 100 | 1000 to 10000 | – | CC(C)CC1Oc2c(cc(Br)cc2S(=O)(=O)Nc2ccc(F)cc2)NC1=O (stereo not shown) [BC19781] |
| 1000 to 10000 | > 10000 | – | CC(C)CC1Oc2cc(S(=O)(=O)Nc3ccc(F)cc3)c(Br)cc2NC1=O (stereo not shown) [BC19782] |
| 1000 to 10000 | > 10000 | – | CC1Oc2cc(S(=O)(=O)Nc3ccc(OC(F)(F)F)cc3)c(Br)cc2N(C)C1=O (stereo not shown) [BC19784] |
| < 100 | > 10000 | – | Cc1ccc(NS(=O)(=O)c2cc(Br)cc3c2OC(C)C(=O)N3C)cc1F (stereo not shown) [BC19785] |
| < 100 | > 10000 | – | CC1Oc2c(cc(Br)cc2S(=O)(=O)Nc2ccc(F)c(F)c2)N(C)C1=O (stereo not shown) [BC19787] |
| 1000 to 10000 | > 10000 | – | CC1Oc2cc(S(=O)(=O)Nc3ccccc3)c(Br)cc2N(C)C1=O (stereo not shown) [BC19790] |
| < 100 | > 10000 | – | CC1Oc2c(cc(Br)cc2S(=O)(=O)Nc2ccc(Cl)cc2)N(C)C1=O (stereo not shown) [BC19791] |
| 1000 to 10000 | > 10000 | – | CC1Oc2cc(S(=O)(=O)Nc3ccc(C(C)C)cc3)c(Br)cc2N(C)C1=O (stereo not shown) [BC19794] |
| < 100 | 1000 to 10000 | – | Cc1ccc(NS(=O)(=O)c2cc(Br)cc3c2OC(C)C(=O)N3C)cc1Cl (stereo not shown) [BC19796] |
| 1000 to 10000 | 1000 to 10000 | – | Cc1ccc(NS(=O)(=O)c2cc3c(cc2Br)N(C)C(=O)C(C)O3)cc1Cl (stereo not shown) [BC19797] |
| < 100 | 1000 to 10000 | – | CC1Oc2c(cc(Br)cc2S(=O)(=O)Nc2ccc(F)cc2F)N(C)C1=O (stereo not shown) [BC19798] |
